Measurements published in patent US12281123B2, “Benzoxazinone compounds as KLK5/7 dual inhibitors” (MOLECULAR SKIN THERAPEUTICS, INC., priority 2019, dated 2025).
Entries after “also recorded” stand apart in the source; their conditions may differ. Marks after values point to notes of the source that are not given here.

Tests used:
[1] = test system: KLK proteases in human skin extract; experiment: Inhibition of protease activity in human skin extract; type: biochemical
Method: Materials: The peptide substrates PS-01 (YRSR-pNA Tyr-Arg-Ser-Arg-pNA) (SEQ ID NO. 1) and PS-02 (Lys-His-Leu-Tyr-pNA) (SEQ ID NO. 2) were synthesized by Zamboni Chemical Solutions (Montreal, Canada). Human epidermis samples were obtained from Biopredic (Saint-Grégoire, France). The BCA protein assay kit was bought from VWR.
Preparation of skin extract: The epidermis was frozen and lyophilized. A sample of 15 mg lyophilized epidermis was immersed in 1 mL high salt buffer (100 mM Tris, 5 mM EDTA, 2M KCl, pH 8), frozen twice in dry ice and thawed. After incubation overnight at 4° C. and addition of six 2.4 mm metal beads, the sample was homogenized in a Bertin Precellys Homogenizer (Atkinson, NH) three times at […] for 20 seconds each and cooled in between for 30 seconds. After centrifugation at maximal speed in a desktop minifuge, the protein concentration of the supernatant was determined by BCA assay (˜0.5 mg/mL).
Inhibition of protease activity in skin extract: Stock solutions of 200, 66, 22 and 0 μM of the tested compound in DMSO were prepared. Substrate stocks of 1100 μM PS-01 and PS-02 were prepared by dissolving in water. The wells of a 384 well plate was filled with 50 μL 2× assay buffer (see above) and then 45 μL substrate stock and 5 μL of the test compound were added. The reaction was started by addition of 10 μL skin extract for the substrate PS-02 and 5 μL for the substrate PS-01. The substrate hydrolysis was monitored in multi-well plate reader at 405 nm.
Chromogenic substrate cleavage progressions of Compounds 1.001, 1.002, and 14 were tested according to human stratum corneum extract assay of Example 4 using KLK5 and KLK7 preferred chromogenic peptide substrates (PS-01 and PS-02). The proteolytic cleavage of KLK5 selective substrate in skin extract by Compounds 1.001, 1.002, and 14 are compared and shown in FIGS. 4A-4D. NSK refers to extract from skin freshly prepared; and OSK refers to extract from skin post freeze thaw.

proteases = experiment: Chromogenic assay, protease panel (conclusion); type: biochemical; details: conclusion from Table 3, all proteases tested
Method: Assays: All assays were performed in 384 well polystyrene plates coated overnight with 0.1% Tween 20 at 4° C. The plates were then washed twice with 100 μL water and dried. For the determination of IC50 values, the inhibitors were diluted in serial dilutions of 1:3 intervals into pure DMSO at 50 fold of the intended final concentrations in the assays. Usually eight inhibitor dilutions and one DMSO control were prepared. The substrates were diluted into water at 2.2-fold the final concentration in the assay mixture. The wells of the plate were filled with 50 μL of the enzyme diluted in 2× assay buffer (100 mM Tris, 200 mM NaCl, 0.2% PEG, 0.01% Tween, 2 mM EDTA, pH 8.0) at twofold the intended concentration. Then 5 μL DMSO, 2.2 μL inhibitor and 45 μL substrate were added to start the reaction. The assays were monitored at 37° C. in a multi well plate reader at a wavelength of 405 nm (Molecular Devices, San Jose, CA) for 1 h. The tool inhibitor, nafamostat, was used as a control for trypsin, thrombin, KLK-5 and KLK-14 at 10 μM maximal concentration and (2-(2-fluorophenyl)-5,6,7,8-tetrahydro-4H-benzo[4,5]thieno[2,3-d][1,3]oxazin-4-one for KLK-7 at 5 μM. […]

[2] = human skin extract, Conc 3.3 μM

| Structure (SMILES) | Inhibition of proteolytic activity of skin extract, in words ([1]; compared to compounds 14 and 1.002, FIGS. 4A-4D (NSK), KLK5 selective substrate) | Initial rate of proteolytic activity ([1]; human skin extract, Conc 1 μM) | Initial rate of substrate hydrolysis ([1]; human skin extract, Conc 1 μM) | Initial rate of proteolytic activity [1, 2] | Initial rate of substrate hydrolysis [1, 2] | Rate in Skin Assay ([1]; human skin extract, compound concentration not given) | Inhibition of proteases, conclusion in words (proteases) |
| --- | --- | --- | --- | --- | --- | --- | --- |
| CS(=O)(=O)c1cc(CO)ccc1-c1nc2cc3c(cc2c(=O)o1)OCCO3 [Compound 1.001, 2-(4-(Hydroxymethyl)-2-(methylsulfonyl)phenyl)-7,8-dihydro-4H-[1,4]dioxino[2′,3′:4,5]benzo[1,2-d][1,3]oxazin-4-one] | more potent inhibition of proteolytic activity; also recorded: more potent inhibitor of the proteolytic activity of skin extract | 0.04* Absorbance405/min | 0.02* Absorbance405/min | 0.07* Absorbance405/min | 0.04* Absorbance405/min | 0.004* Absorbance405/min |  |
| CS(=O)(=O)c1cc(CO)ccc1C(=O)Nc1cc2c(cc1C(=O)O)OCCO2 [Compound 408, reference compound] |  |  |  |  |  |  | unable to inhibit proteases |
